Patent US20230391776A1, “AMIDE OXAZOLE COMPOUND” (MEDSHINE DISCOVERY INC., priority 2020, published 2023)

What was measured:
human IRAK4 = molecular target: T1, human IRAK4 (Homo sapiens, UniProt Q9NWZ3); assay: In vitro IRAK4 kinase activity, 33P isotope-labeled kinase assay; type: biochemical
T1 construct: purchased Reaction Biology Corp
T1 sequence (Q9NWZ3 1-460): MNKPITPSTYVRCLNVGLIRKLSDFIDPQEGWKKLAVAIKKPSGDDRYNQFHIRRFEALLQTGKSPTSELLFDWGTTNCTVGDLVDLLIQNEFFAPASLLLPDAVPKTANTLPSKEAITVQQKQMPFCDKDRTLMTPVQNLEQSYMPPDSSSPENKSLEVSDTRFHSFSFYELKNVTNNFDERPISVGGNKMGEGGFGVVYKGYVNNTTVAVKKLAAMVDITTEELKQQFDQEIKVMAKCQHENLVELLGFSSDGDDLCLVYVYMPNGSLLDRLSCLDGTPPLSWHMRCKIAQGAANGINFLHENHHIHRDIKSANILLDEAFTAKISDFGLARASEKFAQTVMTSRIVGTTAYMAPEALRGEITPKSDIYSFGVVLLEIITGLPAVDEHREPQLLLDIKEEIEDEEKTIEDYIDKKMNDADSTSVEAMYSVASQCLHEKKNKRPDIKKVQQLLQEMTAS
Experimental: The IC50 values were determined using ^33P isotope-labeled kinase activity assay (Reaction Biology Corp) to evaluate the inhibitory ability of the tested compounds on human IRAK4.
Buffer conditions: 20 mM Hepes (pH 7.5), 10 mM MgCl2, 1 mM EGTA, 0.02% Brij35, 0.02 mg/mL BSA, 0.1 mM Na3VO4, 2 mM DTT, 1% DMSO.
Test procedure: At room temperature, the tested compound was dissolved in DMSO and a 10 mM solution was prepared for use. The substrate was dissolved in a newly prepared buffer solution, and the tested IRAK4 kinase was added thereto and mixed evenly. The DMSO solution dissolved with the tested compound was added to the above mixed evenly reaction solution using acoustic technique (Echo 550). After incubation for 15 minutes, ^33P-ATP was added to initiate the reaction. The reaction was carried out at room temperature for 120 minutes, and the reaction mixture was dropped on P81 ion exchange filter paper (Whatman #3698-915). The filter paper was washed repeatedly with 0.75% phosphoric acid solution, and the radioactivity of phosphorylated substrate residues on the filter paper was determined. The kinase activity data were expressed by comparing the kinase activity of the group containing the tested compound with the kinase activity of the blank group (only containing DMSO), and the IC50 value was obtained by curve fitting by Prism4 software (GraphPad), the experimental results were shown in Table 2.

[1] = test system: TNF-α production in THP-1 cells; assay: TNF-α ELISA in LPS-stimulated THP-1 cells; type: cell-based; details: Homo sapiens, TNF-α in supernatant, 150 ng/mL LPS, 18 hours
Experimental: THP-1 human acute single cell leukemia cells were purchased from ATCC (Cat #TIB-202) and cultured at 37° C. in 5% CO2 incubator. The composition of medium was RPMI1640 (Gibco, Cat #22400-105), and the supplementary compositions were 10% FBS (Gibco, Cat #10091148); 1% PenStrep (Gibco, Cat #15140); 0.05 mM β-mercaptoethanol (Sigma, Cat #M6250).
TNF-α Elisa kit was used to detect the content of TNF-α in cell culture supernatant samples. TNF-α was produced by stimulating THP-1 cells with 150 ng/mL LPS (Sigma, Cat #L6529).
THP-1 cells cultured normally at logarithmic growth period were seeded in a 96-well plate (Corning #3599) at a certain concentration (1*10^5/100 μL) and then put into a cell incubator for incubation. After two hours, 16.7 μL of different concentrations of the compound to be tested (8*final concentration) were added and incubated in an incubator. After one hour, 16.7 μL of 1200 ng/mL LPS was added and incubated in an incubator. After 18 hours, the culture supernatant samples were collected by centrifugation, and the content of TNF-α could be detected by TNF-α Elisa kit. Finally, OD signals (OD450-OD570) were read on envision board reader.
The OD450-OD570 signal value was converted into a percentage inhibition rate.
Inhibition rate %=(ZPE−sample)/(ZPE−HPE)*100.
“HPE” referred to the OD450-OD570 signal value of the control well without LPS stimulated cells, and “ZPE” referred to the OD450-OD570 signal value of the control well with LPS stimulated cells. The IC50 value of the compound was calculated by XLFit in the excel add-in.
Y=Bottom+(Top−Bottom)/(1+(IC50/X)^HillSlope). Equation: […]

[2] = test system: OCI-LY10 human diffuse large B lymphoma cells; assay: OCI-LY10 cell proliferation (Cell Titer Glo); type: cell-based; details: 72 hours
Experimental: (§1) The tumor cell lines OCI-LY10 and TMD-8 were used to detect the effect of the compound of the disclosure on inhibiting tumor cell proliferation in vitro.
OCI-LY10 human diffuse large B lymphoma cells, from Nanjing Cobioer Biotechnology Co., Ltd
(§2) The compound was diluted with DMSO to a final concentration of 10 mM. The compound was freshly prepared and ready for use.
(§3) a) Logarithmic growth period cells were collected, counted, resuspended with complete culture medium, the cell concentration was adjusted to an appropriate concentration (determined according to the results of cell density optimization test), inoculated on 96-well plates, and 100 μL of cell suspension was added to each well. Cells were incubated in an incubator with 37° C., 100% relative humidity and 5% CO2 for 24 hours.
(§4) b) The compound to be tested was diluted to 50 μM with culture medium and then gradient diluted for 8 times. Cells were added with 25 μL/well. The final concentrations of the compound were from […], 3-fold gradient dilution, with a total of 9 concentration points.
(§5) c) Cells were incubated in an incubator with 37° C., 100% relative humidity and 5% CO2 for 72 hours;
(§6) d) 60 μL of CTG test reagent was added to the culture medium.
(§7) e) Shaked fully and reacted in the dark for 10 min. Luminescence was measured on ENVISION and the inhibition rate was calculated.
(§8) Cell growth inhibition rate %=[(RLUv−RLUs)/(RLUv−RLUb)]×100%

[3] = test system: TMD-8 human diffuse large B lymphoma cells; assay: TMD-8 cell proliferation (Cell Titer Glo); type: cell-based; details: TMD8, 72 hours
Experimental: as §1
TMD-8 human diffuse large B lymphoma cells, from Nanjing Cobioer Biotechnology Co., Ltd
as §2, §3, §4, §5, §6, §7, §8

Row | SMILES | IC50 (human IRAK4) [nM] | IC50 [1] [nM] | IC50 [2] [nM] | IC50 [3] [nM]
1 | CC(C)(O)c1cn2cc(NC(=O)c3coc(-c4ccnc(N)c4F)n3)c(-c3ccccc3)cc2n1 [WX027] | 0.1 | 41.9 | 26 | 32.2
2 | Cc1cc(-c2nc(C(=O)Nc3cn4cc(C(C)(C)O)nc4cc3-c3ccccc3)co2)ccn1 [WX009] | 0.9 | 60 | 48 | 37
3 | CC(C)(O)c1cn2cc(NC(=O)c3coc(-c4ccnc(N)c4)n3)c(-c3ccccc3)cc2n1 [WX017] | 0.1 | 15.9 | 7 | 10
